In BindingDB's records for doi:10.7270/Q2PR7TCX (The Scripps Research Institute Molecular Screening Center, 2007):
Structures can show the parent of a compound that is named as a salt.

biological target: Steroidogenic factor 1 (Homo sapiens, UniProt Q13285); assay: inhibition of SF-1 LBD-driven luciferase – cell-based, CHO-K1, Gal4-SF-1 LBD, luciferase luminescence, counter-screen for RORA inhibitor project, dose response (AID 611); details: not given
Sequence (Q13285 whole entry, the tested form may be a part): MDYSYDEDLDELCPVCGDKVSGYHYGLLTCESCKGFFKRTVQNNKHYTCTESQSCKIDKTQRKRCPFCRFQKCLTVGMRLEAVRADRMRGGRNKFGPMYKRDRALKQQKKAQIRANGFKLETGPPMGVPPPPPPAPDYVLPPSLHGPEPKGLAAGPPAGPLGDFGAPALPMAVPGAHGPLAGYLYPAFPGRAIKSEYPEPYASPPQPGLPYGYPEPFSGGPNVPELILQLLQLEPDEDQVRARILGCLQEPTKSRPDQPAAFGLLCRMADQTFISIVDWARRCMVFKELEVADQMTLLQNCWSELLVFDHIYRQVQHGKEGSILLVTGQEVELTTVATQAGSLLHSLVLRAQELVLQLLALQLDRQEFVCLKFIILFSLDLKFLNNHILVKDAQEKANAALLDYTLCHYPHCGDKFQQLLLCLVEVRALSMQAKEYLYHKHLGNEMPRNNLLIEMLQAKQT

| SMILES | IC50 [µM] |
| --- | --- |
| COc1cccc(N2CCN(c3ncnc4c3[nH]c3ccc(F)cc34)CC2C)c1 (configuration not stated) [8-fluoranyl-4-[4-(3-methoxyphenyl)-3-methyl-piperazin-1-yl]-5H-pyrimido[5,4-b]indole] | 1.44 |
| Cc1nnc(SC(=O)N2c3ccccc3Sc3ccccc32)s1 [10-phenothiazinecarbothioic acid S-(5-methyl-1,3,4-thiadiazol-2-yl) ester] | 6.07 |
| O=C(OC1CCOC1=O)c1ccc(-c2nc3ccccc3s2)s1 (configuration not stated) [(2-oxidanylideneoxolan-3-yl) 5-(1,3-benzothiazol-2-yl)thiophene-2-carboxylate] | 5.18 |
| O=C1C(=CNc2ccc3c(c2)OCO3)CCc2ccccc21 [(2E)-2-[(1,3-benzodioxol-5-ylamino)methylene]tetralin-1-one] | 3.32 |
| COc1cccc2sc(Nc3nc(-c4ccccn4)cs3)nc12 [(4-methoxy-1,3-benzothiazol-2-yl)-[4-(2-pyridyl)thiazol-2-yl]amine] | 3.89 |
| CN=c1scc(C)n1N=Cc1ccc(O)cc1O [(4E)-4-[[(4-methyl-2-methylimino-1,3-thiazol-3-yl)amino]methylidene]-3-oxidanyl-cyclohexa-2,5-dien-1-one] | 1.94 |
| COc1ccc(CCNc2c(C)c(C)nc3ncnn23)cc1 [(5,6-Dimethyl-[1,2,4]triazolo[1,5-a]pyrimidin-7-yl)-[2-(4-methoxy-phenyl)-ethyl]-amine] | 6.45 |
| COc1cccc2c1C(=O)c1c(O)c3c(c(O)c1C2=O)C[C@@](O)(C(C)=O)C[C@@H]3O[C@H]1C[C@H](N)[C@H](O)[C@H](C)O1 [(7S,9S)-9-acetyl-7-[(2R,4S,5S,6S)-4-amino-5-hydroxy-6-methyloxan-2-yl]oxy-6,9,11-trihydroxy-4-methoxy-8,10-dihydro-7H-tetracene-5,12-dione;hydrochloride] | 0.409 |
| C[C@H]1CCCC=CC2C[C@H](O)CC2[C@H](O)C=CC(=O)O1 (stereo partly drawn) [(7S,12R,15S)-12,15-dihydroxy-7-methyl-8-oxabicyclo[11.3.0]hexadeca-2,10-dien-9-one] | 8.95 |
| Cc1ccc(C(=O)CC=Nc2ccccn2)cc1 [(E)-1-(4-methylphenyl)-3-(2-pyridinylamino)-2-propen-1-one] | 1.49 |
| O=C(CC=Nc1ccccn1)c1ccc(Cl)cc1 [(Z)-1-(4-chlorophenyl)-3-(2-pyridinylamino)-2-propen-1-one] | 4.88 |
| O=S(=O)(C/C(=C/CO)S(=O)(=O)c1ccccc1)c1ccccc1 [(Z)-3,4-bis(benzenesulfonyl)but-2-en-1-ol] | 4.03 |
| O=C(CC=Nc1ccc2c(c1)OCO2)c1ccccn1 [(Z)-3-(1,3-benzodioxol-5-ylamino)-1-(2-pyridinyl)-2-propen-1-one] | 1.5 |
| CCOC(=O)c1[n-]c2ccccc2c1[N+]#N [(Z)-(3-diazonio-2-indolylidene)-ethoxymethanolate] | 13.2 |
| COc1ccc(C2=Nn3c(nnc3-c3ccccc3OC)SC2)cc1OC [BMCL181297 Compound 5A] | > 3.67 |
| COc1cc2nc(CN3CC=C(c4ccccc4)CC3)nc(O)c2cc1OC [MLS000053305] | 2.36 |
| O=C(Nc1nc2ccccc2[nH]1)c1ccccc1F [N-1,3-dihydro-2H-benzimidazol-2-ylidene-2-fluorobenzamide] | 1.91 |
| O=C(Nc1nc2ccccc2[nH]1)c1ccc(F)cc1 [N-1,3-dihydro-2H-benzimidazol-2-ylidene-4-fluorobenzamide] | > 11 |
| N#Cc1c(NC(=O)CSc2nc[nH]n2)sc2c1CCCCC2 [N-(3-cyano-5,6,7,8-tetrahydro-4H-cyclohepta[b]thien-2-yl)-2-(1H-1,2,4-triazol-3-ylthio)acetamide] | 0.237 |

Further lines, results first:

| IC50 [µM] | SMILES |
| --- | --- |
| 1.18 | COc1cccc2c1C(=O)c1c(O)c3c(c(O)c1C2=O)C[C@@](O)(C(=O)CO)C[C@@H]3O[C@H]1C[C@H](N)[C@H](O)[C@H](C)O1 [MLS000028393] |
| 7.64 | CCOc1cc(C(=O)CSc2nnc(CNc3ccc(Cl)cc3)o2)ccc1NC(=O)CC [MLS000032332] |
| 5.43 | Nc1ccc(-c2nc3c(Cl)cc(N)cc3[nH]2)cc1 [MLS000034140] |
| 3.29 | Cc1cccc(NC(=O)CSc2nnc(-c3cc(C)n(-c4ccccc4)c3C)o2)c1C [MLS000036049] |
| 5.26 | COc1cccc(C(=O)c2sc(NC(C)C)nc2N)c1 [MLS000036929] |
| 6.77 | CC(=O)c1sc(NC(=O)C2(F)C(F)(F)C(F)(F)C(F)(F)C(F)(F)C2(F)F)nc1C [MLS000040071] |
| 2.27 | COc1ccc(CCNc2ncnc3c2oc2ccccc23)cc1OC [MLS000041708] |
| 4 | COc1ccc(C=Nn2nnc3ccccc32)cc1 [MLS000043825] |
| 6.41 | CS(=O)(=O)c1nc(-c2cccs2)cc(C(F)(F)F)n1 [MLS000044645] |
| 3.9 | Cc1ccc(NC(=O)Cc2nn(C)c(=O)c3ccccc23)cc1F [MLS000047015] |
| 6.3 | Cn1nc(CC(=O)Nc2ccc3c(c2)OCCO3)c2ccccc2c1=O [MLS000047020] |
| 6.74 | CCn1c2ccccc2c2cc(NC(=O)CSc3nnnn3-c3ccccc3)ccc21 [MLS000051054] |
| 4.65 | O=C(NC1=NCCS1)C1COc2ccccc2O1 (configuration not stated) [MLS000056062] |
| 0.841 | CC(=O)Nc1ccccc1OCC(=O)c1cc(C)n(Cc2cccs2)c1C [MLS000056239] |
| 7.21 | COc1ccc(CCNc2nnc(Sc3nnnn3-c3ccccc3)s2)cc1OC [MLS000056567] |
| 4.41 | CC(=O)Nc1ccc(SCC(=O)c2cc(C)n(Cc3cccs3)c2C)cc1 [MLS000058142] |
| 4.32 | Cc1cc(C)n(-c2ccc3cccc(NS(C)(=O)=O)c3n2)n1 [MLS000062301] |
| 6.57 | O=C(Nc1ccc(N2CCOCC2)cc1)c1cnsn1 [MLS000063695] |

| IC50 [µM] | SMILES |
| --- | --- |
| 3.29 | CC1CCc2nc(NC(=O)c3ccco3)sc2C1 (configuration not stated) [MLS000063711] |
| 9.29 | Cc1cc(NC(=O)c2ccc3c(c2)OCCO3)no1 [MLS000064124] |
| 7.71 | CCN(C(=O)c1ccc(C(C)(C)C)cc1)c1nnc(Cn2nnc3ccccc32)s1 [MLS000072751] |
| 5.78 | O=C(CSc1nnnn1-c1ccccc1)Nc1nsc(-c2ccc(Cl)cc2)n1 [MLS000085595] |
| 7.05 | COc1ccc(-c2nc(CSCC(=O)NCc3ccco3)c(C)o2)cc1 [MLS000089353] |
| 0.656 | COCCNC(=O)CSCc1nc(-c2ccc(SC)cc2)oc1C [MLS000089367] |
| 6.81 | CN(C)c1ccc(-c2nc3ccccc3n2C)cc1 [MLS000089904] |
| > 4.06 | O=C(NCc1ccco1)c1ccc2nc3sc4c(c3c(=O)n2c1)CCCC4 [MLS000091875] |
| 0.44 | O=c1cc(N2CCN(c3cccc(Cl)c3)CC2)[nH]c(=O)n1C1CCCCC1 [MLS000094380] |
| 5.3 | COc1ccc(C(=O)Nn2c(SCC(=O)NCc3ccco3)nc3ccccc3c2=O)cc1 [MLS000097349] |
| 9.86 | O=C(NCCOc1ccccc1)c1ccc2c(c1)OCO2 [MLS000100028] |
| 4.16 | O=C(Nc1nc2cc3c(cc2s1)OCO3)C1=COCCO1 [MLS000103798] |
| 3.04 | CN(C)c1ccc(NC(=S)c2ccccn2)cc1 [MLS000111989] |
| 3.4 | Cc1cc(C=Nn2cnnc2)c(C)n1-c1ccc(OCc2ccc(F)cc2)cc1 [MLS000112167] |
| 7.58 | Cc1cc(C=Nn2cnnc2)c(C)n1-c1ccc(OCc2ccccc2F)cc1 [MLS000112180] |
| 9.9 | Cc1ccc(-c2nnc(SCC(=O)Nc3ccccc3F)o2)cc1 [MLS000114725] |
| > 3.67 | COc1ccc(CNC(=O)c2cc3c(C)nc4ccccc4c3o2)c(OC)c1 [MLS000118441] |

same assay, conditions: inactive by the depositor's call

| SMILES | IC50 [µM] |
| --- | --- |
| CCCOc1ccccc1C1CC(=O)Nc2cc3c(cc21)OCCO3 (configuration not stated) [9-(2-propoxyphenyl)-2,3,8,9-tetrahydro[1,4]dioxino[2,3-g]quinolin-7(6H)-one] | 10.6 |
| COc1cccc(OC)c1C1=NCC(=O)Nc2c1oc1ccc(Br)cc21 [9-bromanyl-5-(2,6-dimethoxyphenyl)-1,3-dihydro-[1]benzofuro[3,2-e][1,4]diazepin-2-one] | 15.4 |
| COc1ccc(CNc2cc(C)nc3ncnn23)c(OC)c1 [(2,4-Dimethoxy-benzyl)-(5-methyl-[1,2,4]triazolo[1,5-a]pyrimidin-7-yl)-amine] | 23.4 |
| Cc1ccc2c(c1)nnn2C1CCN(S(=O)(=O)c2ccc(C(=O)N3C(C)CCCC3C)cc2)CC1 (configuration not stated) [(2,6-Dimethyl-piperidin-1-yl)-{4-[4-(5-methyl-benzotriazol-1-yl)-piperidine-1-sulfonyl]-phenyl}-methanone] | 10.6 |
| Cc1nc(NC(C)c2ccccc2)c2oc3ccccc3c2n1 (configuration not stated) [(2-methylbenzofuro[3,2-d]pyrimidin-4-yl)-(1-phenylethyl)amine] | 23.1 |
| CCc1c(C)nc2ncnn2c1NCCc1ccc(OC)cc1 [(6-Ethyl-5-methyl-[1,2,4]triazolo[1,5-a]pyrimidin-7-yl)-[2-(4-methoxy-phenyl)-ethyl]-amine] | 11.6 |

Next, values leading:

| IC50 [µM] | SMILES |
| --- | --- |
| 14 | Cc1ccccc1OCC(=O)Nc1ccc(N2CCN(C(=O)C(C)C)CC2)c(Cl)c1 [MLS000034491] |
| 10.8 | CS(=O)(=O)c1nc(-c2ccco2)cc(C(F)(F)F)n1 [MLS000044646] |
| 21.1 | Cc1noc(C)c1S(=O)(=O)Nc1ccc(C(=O)N2CCN(c3ccc(Cl)cc3)CC2)cc1 [MLS000045033] |
| 12.2 | Cc1ccc(F)cc1NC(=O)Cc1nn(C)c(=O)c2ccccc12 [MLS000047013] |
| 18.5 | N#C/C(=C/c1ccc(N2CCCCCC2)o1)c1ccc(F)cc1 [MLS000051438] |
| 10.6 | CCOC(=O)c1c(C)[nH]c(C(=O)C(C)OC(=O)c2cccc(OCc3c(C)noc3C)c2)c1C (configuration not stated) [MLS000054923] |
| 13.3 | Cc1cc(C)nc(SCC(=O)Nc2ccc(N3CCOCC3)c(Cl)c2)n1 [MLS000066583] |
| 11.3 | c1ccc(CN2CCN(c3ncnc4c3[nH]c3ccccc34)CC2)cc1 [MLS000078384] |
| 10.4 | Fc1ccc2[nH]c3c(N4CCSCC4)ncnc3c2c1 [MLS000078401] |
| 10.6 | CCOc1cc(C(=O)N2CCc3cc(OC)c(OC)cc3C2)ccc1OC(F)F [MLS000083614] |
| 12.2 | CC1(C)COCN1S(=O)(=O)c1ccc(C(=O)Nc2nnc(-c3ccc(Cl)s3)o2)cc1 [MLS000086346] |
| 11.5 | CCCOC(=O)c1[nH]c2c(c1C)C(=O)CC(c1cc(OC)c(OC)c(OC)c1)C2 (configuration not stated) [MLS000116504] |
